Measurements published in PubChem BioAssay (NCI).
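A five-concentration, 48-hour dose response in 96-well plates underlies each endpoint, interpolated linearly between surrounding concentrations. GI50: concentration for 50% inhibition of growth. TGI denotes the concentration required for complete inhibition of growth.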

Legend:
Test in all cases: NCI anticancer screen, dose series, 48 h
A498 renal = tested on: A498 renal
HCC-2998 colon = tested on: HCC-2998 colon
NCI-H460 lung = tested on: NCI-H460 lung
RPMI-8226 leukemia = tested on: RPMI-8226 leukemia
SF-539 CNS = tested on: SF-539 CNS
SK-OV-3 ovarian = tested on: SK-OV-3 ovarian
SNB-19 CNS = tested on: SNB-19 CNS
CCRF-CEM leukemia = tested on: CCRF-CEM leukemia
EKVX NSCLC = tested on: EKVX NSCLC
MDA-MB-435 = tested on: MDA-MB-435

SMILES	TGI (A498 renal)	TGI (HCC-2998 colon)	TGI (NCI-H460 lung)	TGI (RPMI-8226 leukemia)	TGI (SF-539 CNS)	TGI (SK-OV-3 ovarian)	TGI (SNB-19 CNS)	GI50 (A498 renal)	GI50 (CCRF-CEM leukemia)	TGI (CCRF-CEM leukemia)	GI50 (EKVX NSCLC)	TGI (EKVX NSCLC)	GI50 (HCC-2998 colon)	GI50 (MDA-MB-435)	TGI (MDA-MB-435)	GI50 (NCI-H460 lung)	GI50 (SF-539 CNS)	GI50 (SK-OV-3 ovarian)	GI50 (SNB-19 CNS)
NC(=S)N/N=C/c1nccc2ccccc12	> 100 µM	> 100 µM	4.94 µM	> 100 µM	9.11 µM	8.52 µM	32.7 µM												
c1ccc(N2N=C(c3cccc(Nc4ccncc4)c3)CC2c2ccc3c(c2)OCO3)cc1 (stereo not given)	5.58 µM	3.36 µM	3.18 µM		3.18 µM	10.2 µM	6.67 µM	1.24 µM	1.78 µM	7.85 µM	2.66 µM	11 µM	1.84 µM	0.383 µM	1.47 µM	1.71 µM	1.7 µM	2.73 µM	2.2 µM
CC[C@@H]1ON(C)[C@H]2CN(C)C(=O)[C@@H]12		> 100 µM	> 100 µM	> 100 µM		> 100 µM	> 100 µM			> 100 µM					> 100 µM				
COc1nc2ccc(COc3ccc(C(=O)NC(CCC(=O)O)C(=O)O)cc3)cc2nc1OC (stereo not given)		> 10 µM	> 10 µM	> 10 µM	> 10 µM	> 10 µM	> 10 µM			> 10 µM		> 10 µM			> 10 µM				
Cc1nc2c(c(=O)[nH]1)S/C(=C(/C#N)c1nc3ccccc3[nH]1)N2c1ccccc1	> 100 µM	> 100 µM	> 100 µM	> 100 µM	> 100 µM	> 100 µM	> 100 µM			> 100 µM		> 100 µM							
CC(=O)N1N=C(c2ccc3ccccc3c2O)CC1c1cccs1 (stereo not given)	44.5 µM	66 µM	> 100 µM	47.1 µM	89.2 µM	> 100 µM				> 100 µM					> 100 µM				
COc1ccc2c(c1O)-c1cc(O)cc3c1[C@@H](C2)N(C)CC3	125 µM	139 µM	150 µM	286 µM	153 µM	289 µM	378 µM			262 µM		187 µM							
O=C1C(Cl)N(c2cccc(Cl)c2)C1c1c[nH]c2ccccc12 (stereo not given)			> 100 µM	> 100 µM	> 100 µM	> 100 µM	> 100 µM			> 100 µM		> 100 µM							
COc1ccc(-c2csc(=Nc3ccccc3)n2CCCN(C)C)cc1	49.2 µM	35.3 µM	78.4 µM	60.8 µM	32 µM	39.4 µM	48.1 µM			> 100 µM					65.3 µM				
COc1cc(C2S/C(=C/c3ccccc3)C(=O)N2c2ccc(NC(C)=O)cc2)cc(OC)c1OC (stereo not given)	67.3 µM	52.3 µM				> 100 µM	> 100 µM			20.4 µM		38.4 µM			62.4 µM				
